{"source": "patent US11096951B2", "about": "“Prebiotic composition containing butyryl-fructooligosaccharides” (priority 2018, dated 2021)", "key": {"[1]": {"system": "B. bifidum BGN4", "test": "Analysis of bacterial culture supernatant (HPLC organic acids)", "assay_type": "cell-based, Bifidobacterium bifidum", "settings": "substance as carbon source"}, "[2]": {"system": "B. longum BORI", "test": "Analysis of bacterial culture supernatant (TLC, HPLC organic acids)", "assay_type": "cell-based, Bifidobacterium longum", "settings": "substance as carbon source"}, "[3]": {"system": "L. casei", "test": "Analysis of bacterial culture supernatant (HPLC organic acids)", "assay_type": "cell-based, Lactobacillus casei", "settings": "substance as carbon source"}, "[4]": {"system": "B. catenulatum", "test": "Analysis of bacterial culture supernatant (HPLC organic acids)", "assay_type": "cell-based, Bifidobacterium catenulatum", "settings": "substance as carbon source"}, "[5]": {"test": "Cell viability by MTT analysis", "assay_type": "cell-based", "settings": "human, Caco-2 cells, percentage of control", "method": "MTT analysis was conducted to confirm cytotoxicity derived from B-FOS. 100 μl of Caco-2 cells were seeded at a density of 2,000 cells/well onto a 96-well plate and cultured at 37° C. in a 5% CO2 cell incubator for 48 hours. […] After completion of culture, 20 μl of a 5 mg/mL MTT solution was added to each well, reaction was conducted for 4 hours again and the supernatant was removed. The formed crystal was dissolved in 100 μl of dimethyl sulfoxide (DMSO) and an absorbance at 750 nm was measured using a microplate spectrophotometer. Cell viability was represented as a percentage with respect to the control group with no treatment and a mean of values by repeating the test four times was indicated (FIG. 16)."}, "[6]": {"system": "Clostridium butyricum", "assay_type": "cell-based", "settings": "1% (w/v)"}, "[7]": {"system": "Caco-2 cells", "test": "Change in growth of Caco-2 cells depending on medium composition (trypan blue cell count)", "settings": "4 days", "protocol": "To avoid main use of glucose as an energy source for cell growth in a standard culture medium of Caco-2 cells containing a high concentration of glucose (4.5 g/L), cellular growth was compared in the presence of a high concentration of glucose (4.5 g/L) and pyruvate using a glucose-free DMEM (Dulbecco's modified Eagle's medium; Gibco BRL, Grand Island, N.Y., USA).\n10% (w/v) solutions of NaB, FOS and B-FOS in PBS were prepared and filtered through a 0.2 μm membrane filter. NaB, FOS and B-FOS were each prepared at a concentration of 0.005 to 0.06% (w/v) in a DMEM medium containing high concentrations of glucose (4.5 g/L) and pyruvate (Glu+Pyr+) and a DMEM medium not containing the same (Glu−Pyr−), and were then used for the test.\n5×10^5 cells were seeded in a dose of 1.5 mL in a 25 cm^2 flask (SPL Life Science, Pocheon, South Korea) and cultured for 3 days in 37° C., 5% CO2 cell incubator until 50% confluence was obtained. Then, the medium was replaced with a medium supplemented with 0.005 to 0.06% (w/v) of NaB, FOS and B-FOS and then cultured under the same conditions for 4 days. The culture supernatant was harvested for testing and adsorbed cells were washed with PBS twice, were treated with trypsin/EDTA, and were isolated from the flask. […] The control group was a medium supplemented with PBS and a mean of values obtained by repeating tests three times is shown."}, "[8]": {"system": "all strains", "test": "Analysis of bacterial culture supernatant (HPLC organic acids), all strains", "assay_type": "cell-based", "settings": "medium containing the substance"}, "[9]": {"system": "Bac. Fragilis", "test": "Analysis of bacterial culture supernatant (HPLC organic acids)", "assay_type": "cell-based", "settings": "substance as carbon source"}, "[10]": {"system": "E. Faecalis", "test": "Analysis of bacterial culture supernatant (TLC, HPLC organic acids)", "assay_type": "cell-based, Enterococcus faecalis", "settings": "substance as carbon source"}, "[11]": {"system": "B. longum RD47", "test": "Analysis of bacterial culture supernatant (HPLC organic acids)", "assay_type": "cell-based, Bifidobacterium longum", "settings": "substance as carbon source"}, "[12]": {"system": "Bac. Thetaiotaomicron", "test": "Analysis of bacterial culture supernatant (HPLC organic acids)", "assay_type": "cell-based", "settings": "substance as carbon source"}, "[13]": {"system": "E. coli", "test": "Analysis of bacterial culture supernatant (HPLC organic acids)", "assay_type": "cell-based, Escherichia coli", "settings": "substance as carbon source"}, "[14]": {"system": "all bacteria used for tests", "test": "Microbial growth curve (OD600), all bacteria used for tests", "assay_type": "cell-based", "settings": "compared to positive control (glucose)", "method": "(§1) All strains were obtained from the official institute of strain distribution or by the food microbiology laboratory of Seoul National University. Eight bifidobacteria strains, four Lactobacillus (lactic acid bacteria) strains, lactis KCTC 2013 (Lactococcus lactis subsp. lactis KCTC 2013), and Streptococcus thermophilus KCTC 3779 were sub-cultured in MRS supplemented with 0.05% (w/v) L-cysteine.HCl (de-Mann-Rogosa-Sharpe broth; Difco, Detroit, USA) at 37° C., twice every 18 hours prior to use. Other strains were sub-cultured in BHIB (brain-heart infusion broth; Difco) under the same culture conditions as above prior to use.\n(§2) A basal medium used for the bacterial growth test was sugar-free BHIB (MB Cell, Los Angeles, Calif., USA). […]\n(§3) In order to remove glucose or other carbon source present in a culture medium of activated bacteria, cultured bacteria were centrifuged (15,000×g, 5 min), the supernatant was discarded and the precipitated bacteria were washed with PBS (pH 7.4) twice. […] Bacterial proliferation was checked by measuring optical density (OD) of the culture solution, absorbance at 600 nm was measured with a microplate reader (BioRad, Hercules, Calif., USA) and a growth curve was made. Bacterial growth was analyzed by comparing maximum OD600 values at a substance concentration of 1% (w/v). […]"}, "[15]": {"system": "Staphylococcus aureus", "test": "Microbial growth curve (OD600)", "assay_type": "cell-based", "settings": "1% (w/v)", "method": "as §1, §2, §3"}}, "data": [{"smiles": "CCCC(=O)[O-].[Na+]", "note": "[NaB, Sodium Butyrate]", "values": [{"measurement": "Acetic acid", "setting": "[1]", "result": "+ (0.05% (v/v) or less)"}, {"measurement": "Butyric acid", "setting": "[1]", "result": "+++ (no more than 0.25% (v/v))"}, {"measurement": "Lactic acid", "setting": "[1]", "result": "+ (0.05% (v/v) or less)"}, {"measurement": "Acetic acid", "setting": "[2]", "result": "+ (0.05% (v/v) or less)"}, {"measurement": "Butyric acid", "setting": "[2]", "result": "+++ (no more than 0.25% (v/v))"}, {"measurement": "Lactic acid", "setting": "[2]", "result": "+ (0.05% (v/v) or less)"}, {"measurement": "Acetic acid", "setting": "[3]", "result": "+ (0.05% (v/v) or less)"}, {"measurement": "Butyric acid", "setting": "[3]", "result": "+++ (no more than 0.25% (v/v))"}, {"measurement": "Lactic acid", "setting": "[3]", "result": "+ (0.05% (v/v) or less)"}, {"measurement": "Acetic acid", "setting": "[4]", "result": "+ (0.05% (v/v) or less)"}, {"measurement": "Butyric acid", "setting": "[4]", "result": "+++ (no more than 0.25% (v/v))"}, {"measurement": "Lactic acid", "setting": "[4]", "result": "++ (0.05% (v/v) − 0.25% (v/v))"}, {"measurement": "viability at 48 h, 0.1 % (w/v)", "setting": "[5]; after 48 hours", "result": "81 ± 15", "unit": "%"}, {"measurement": "viability at 72 h, 0.1 % (w/v)", "setting": "[5]; after 72 hours", "result": "45 ± 6.9", "unit": "%"}, {"measurement": "growth of bacteria", "setting": "[6]; vs negative control", "result": "significantly inhibited"}, {"measurement": "maximum OD600", "setting": "[6]; negative control OD600=0.49", "result": 0.42}, {"measurement": "decrease in the number of cells as compared to the control group", "setting": "[7]; Glu+Pyr+ medium, 0.005% (w/v)", "result": "about 30%"}, {"measurement": "decrease in the number of cells as compared to the control group", "setting": "[7]; Glu+Pyr+ medium, 0.04% (w/v)", "result": "~50", "unit": "%"}, {"measurement": "decrease in the number of cells as compared to the control group", "setting": "[7]; Glu+Pyr+ medium, 0.06% (w/v)", "result": "~65", "unit": "%"}, {"measurement": "number of cells vs control group", "setting": "[7]; Glu−Pyr− medium, 0.005% (w/v)", "result": "increased"}, {"measurement": "number of cells vs control group", "setting": "[7]; Glu−Pyr− medium, 0.02% (w/v)", "result": "increased"}, {"measurement": "number of cells vs control group", "setting": "[7]; Glu−Pyr− medium, 0.04% (w/v)", "result": "no significant difference"}, {"measurement": "decrease in the number of cells as compared to the control group", "setting": "[7]; Glu−Pyr− medium, 0.06% (w/v)", "result": 35, "unit": "%"}, {"measurement": "butyric acid in culture solutions (HPLC)", "setting": "[8]", "result": "detected"}, {"measurement": "Acetic acid", "setting": "[9]", "result": "+ (0.05% (v/v) or less)"}, {"measurement": "Butyric acid", "setting": "[9]", "result": "+++ (no more than 0.25% (v/v))"}, {"measurement": "Lactic acid", "setting": "[9]", "result": "+ (0.05% (v/v) or less)"}, {"measurement": "Acetic acid", "setting": "[10]", "result": "+ (0.05% (v/v) or less)"}, {"measurement": "Butyric acid", "setting": "[10]", "result": "+++ (no more than 0.25% (v/v))"}, {"measurement": "Lactic acid", "setting": "[10]", "result": "+ (0.05% (v/v) or less)"}, {"measurement": "Acetic acid", "setting": "[11]", "result": "+ (0.05% (v/v) or less)"}, {"measurement": "Butyric acid", "setting": "[11]", "result": "+++ (no more than 0.25% (v/v))"}, {"measurement": "Lactic acid", "setting": "[11]", "result": "+ (0.05% (v/v) or less)"}, {"measurement": "Acetic acid", "setting": "[12]", "result": "+ (0.05% (v/v) or less)"}, {"measurement": "Butyric acid", "setting": "[12]", "result": "+++ (no more than 0.25% (v/v))"}, {"measurement": "Lactic acid", "setting": "[12]", "result": "−"}, {"measurement": "Acetic acid", "setting": "[13]", "result": "+ (0.05% (v/v) or less)"}, {"measurement": "Butyric acid", "setting": "[13]", "result": "+++ (no more than 0.25% (v/v))"}, {"measurement": "Lactic acid", "setting": "[13]", "result": "−"}, {"measurement": "growth / use by bacteria used for tests", "setting": "[14]", "result": "could not be grown well"}, {"measurement": "growth of bacteria", "setting": "[15]; vs negative control", "result": "significantly inhibited"}, {"measurement": "maximum OD600", "setting": "[15]; negative control OD600=0.36", "result": 0.25}]}]}
